Results on 23 compounds are retold here after ChEMBL document CHEMBL1123852, “Synthesis and structure-activity studies of corticosteroid 17-heterocyclic aromatic esters. 1. 9 alpha, 11 beta-dichloro series” (1987).

The species named for experiment [1] is Mus musculus. The experiment can be described thus: Antiinflammatory potency to betamethasone 17-valerate measured in mice using 5 day Tonelli croton oil ear test. In kind it is functional.
Experiment [2] is filed under the species Mus musculus. The experiment in a line: Antiinflammatory potency to betamethasone 17-valerate measured in mice using 5 hr Tonelli croton oil ear test. The class given is functional.

In the case of `CC(=O)OCC(=O)[C@@]1(OC(=O)c2cccs2)C(C)CC2C3CCC4=CC(=O)C=CC4(C)[C@@]3(Cl)C(Cl)CC21C` (some centres undefined), the values for the Topical potency in the experiment listed under Mus musculus [1] and in the experiment filed under Mus musculus [2] were 0.8 and 1.3, respectively.
As for `CC1CC2C3CCC4=CC(=O)C=CC4(C)[C@@]3(Cl)C(Cl)CC2(C)[C@@]1(OC(=O)c1ccoc1)C(=O)CCl` (some centres undefined), the Topical potency in the experiment filed under Mus musculus [1] is 1.7; in the experiment listed under Mus musculus [2], 1.
With `CC1CC2C3CCC4=CC(=O)C=CC4(C)[C@@]3(Cl)C(Cl)CC2(C)[C@@]1(OC(=O)c1ccco1)C(=O)CO` (some centres undefined), the Topical potency in the experiment listed under Mus musculus [2] came out at 0.8.
Consider `CC(=O)OCC(=O)[C@@]1(OC(=O)c2ccoc2)C(C)CC2C3CCC4=CC(=O)C=CC4(C)[C@@]3(Cl)C(Cl)CC21C` (some centres undefined), for which the Topical potency in the experiment listed under Mus musculus [1] is 1.4; in the experiment listed under Mus musculus [2], 1.3.
`CC1CC2C3CCC4=CC(=O)C=CC4(C)[C@@]3(Cl)C(Cl)CC2(C)[C@@]1(OC(=O)c1ccoc1)C(=O)CO` (some centres undefined): the Topical potency in the experiment filed under Mus musculus [2] was 0.7.
With `CC1CC2C3CCC4=CC(=O)C=CC4(C)[C@@]3(Cl)C(Cl)CC2(C)[C@@]1(OC(=O)c1cccs1)C(=O)CO` (some centres undefined), the Topical potency in the experiment listed under Mus musculus [2] is given as 0.8.
For `CC(=O)OCC(=O)[C@@]1(OC(=O)c2ccc(C)s2)C(C)CC2C3CCC4=CC(=O)C=CC4(C)[C@@]3(Cl)C(Cl)CC21C` (some centres undefined), the Topical potency is recorded as 0.56 in the experiment listed under Mus musculus [1] and 1.2 in the experiment filed under Mus musculus [2].
Turning to `CC(=O)OCC(=O)[C@@]1(OC(=O)c2cccn2C)C(C)CC2C3CCC4=CC(=O)C=CC4(C)[C@@]3(Cl)C(Cl)CC21C` (some centres undefined), the Topical potency in the experiment filed under Mus musculus [2] is given as 1.1.
On to `CC(=O)OCC(=O)[C@@]1(OC(=O)c2ccco2)C(C)CC2C3C[C@H](F)C4=CC(=O)C=CC4(C)[C@@]3(Cl)C(Cl)CC21C` (some centres undefined), for which the Topical potency is 1.8 in the experiment listed under Mus musculus [1] and 3.3 in the experiment filed under Mus musculus [2].
`C[C@H]1CC2C3CCC4=CC(=O)C=C[C@]4(C)[C@@]3(Cl)C(Cl)C[C@]2(C)[C@@]1(OC(=O)c1ccco1)C(=O)CCl` (some centres undefined): the Topical potency is on record as 0.8 in the experiment listed under Mus musculus [1] and 1.2 in the experiment filed under Mus musculus [2].
For the compound `CC(=O)OCC(=O)[C@@]1(OC(=O)c2ccco2)[C@@H](C)CC2C3CCC4=CC(=O)C=C[C@]4(C)[C@@]3(Cl)C(Cl)C[C@@]21C` (some centres undefined), the Topical potency in the experiment filed under Mus musculus [1] was 1.7; in the experiment filed under Mus musculus [2], 1.3.
`C[C@@H]1CC2C3CCC4=CC(=O)C=C[C@]4(C)[C@@]3(Cl)C(Cl)C[C@]2(C)[C@@]1(OC(=O)c1ccco1)C(=O)CCl` (some centres undefined): the Topical potency in the experiment listed under Mus musculus [1] turned out to be 8.2; in the experiment filed under Mus musculus [2], 1.9.
`CC(=O)OCC(=O)[C@@]1(OC(=O)c2ccco2)[C@H](C)CC2C3CCC4=CC(=O)C=C[C@]4(C)[C@@]3(Cl)C(Cl)C[C@@]21C` (some centres undefined): the Topical potency in the experiment listed under Mus musculus [1] was determined as 1.2; in the experiment filed under Mus musculus [2] it was 1.4.
As to `COCC(=O)OCC(=O)[C@@]1(OC(=O)c2ccco2)C(C)CC2C3CCC4=CC(=O)C=CC4(C)[C@@]3(Cl)C(Cl)CC21C` (some centres undefined), the figures for the Topical potency in the experiment filed under Mus musculus [1] and in the experiment filed under Mus musculus [2] were 3 and 1, respectively.
In turn, `CC(=O)OCC(=O)[C@@]1(OC(=O)c2cnc3ccccc3n2)C(C)CC2C3CCC4=CC(=O)C=CC4(C)[C@@]3(Cl)C(Cl)CC21C` (some centres undefined) gave a Topical potency in the experiment listed under Mus musculus [2] of 0.3.
With `CC(=O)OCC(=O)[C@@]1(OC(=O)c2ccsc2)C(C)CC2C3CCC4=CC(=O)C=CC4(C)[C@@]3(Cl)C(Cl)CC21C` (some centres undefined), the Topical potency stood at 3.2 in the experiment filed under Mus musculus [1] and 0.9 in the experiment listed under Mus musculus [2].
As to `CCCC(=O)OCC(=O)[C@@]1(OC(=O)c2ccco2)C(C)CC2C3CCC4=CC(=O)C=CC4(C)[C@@]3(Cl)C(Cl)CC21C` (some centres undefined), the Topical potency in the experiment listed under Mus musculus [2] is given as 1.
`CC1CC2C3CCC4=CC(=O)C=CC4(C)[C@@]3(Cl)C(Cl)CC2(C)[C@@]1(OC(=O)c1ccco1)C(=O)CF` (some centres undefined): the Topical potency was found to be 4 in the experiment filed under Mus musculus [1] and 1.8 in the experiment filed under Mus musculus [2].
In the case of `CC1CC2C3C[C@H](F)C4=CC(=O)C=CC4(C)[C@@]3(Cl)C(Cl)CC2(C)[C@@]1(OC(=O)c1ccco1)C(=O)CCl` (some centres undefined), the Topical potency in the experiment listed under Mus musculus [1] was determined as 3; in the experiment listed under Mus musculus [2], 2.5.
For the compound `CC1CC2C3CCC4=CC(=O)C=CC4(C)[C@@]3(Cl)C(Cl)CC2(C)[C@@]1(OC(=O)c1cccs1)C(=O)CCl` (some centres undefined), the results for the Topical potency in the experiment filed under Mus musculus [1] and in the experiment filed under Mus musculus [2] were 3.3 and 0.7, respectively.
In the case of `CCC(=O)OCC(=O)[C@@]1(OC(=O)c2ccco2)C(C)CC2C3CCC4=CC(=O)C=CC4(C)[C@@]3(Cl)C(Cl)CC21C` (some centres undefined), the Topical potency in the experiment filed under Mus musculus [1] was 0.9; in the experiment listed under Mus musculus [2] it was 1.1.
`CC(=O)OCC(=O)[C@@]1(OC(=O)c2ccc(Br)o2)C(C)CC2C3CCC4=CC(=O)C=CC4(C)[C@@]3(Cl)C(Cl)CC21C` (some centres undefined) showed a Topical potency in the experiment listed under Mus musculus [2] of 0.6.
As to `CCCCC(=O)O[C@]1(C(=O)CO)[C@@H](C)C[C@H]2[C@@H]3CCC4=CC(=O)C=C[C@]4(C)[C@@]3(F)[C@@H](O)C[C@@]21C` [BETAMETHASONE VALERATE], the Topical potency in the experiment filed under Mus musculus [1] and in the experiment filed under Mus musculus [2] was 1 each time.
